Values quoted from earlier work, collected in the PKSmart pharmacokinetics tables (Seal et al. 2025).

Assay: Lombardo, Berellini, Obach 2018, Drug Metab Dispos 46:1466, doi 10.1124/dmd.118.082966
Conditions: human; for clearance / half-life / MRT / Vd: in vivo, iv; for fraction unbound: plasma

Structure (SMILES) | clearance [mL/min/kg] | half-life [h] | fraction unbound | MRT [h] | Vd [L/kg]
Cc1[nH]c2ccccc2c1CCNCc1ccc(/C=C/C(O)=NO)cc1 | 10.2 | 13.1 | 0.1 |  | 
Nc1nc2c(Cc3cccnc3)c[nH]c2c(=O)[nH]1 | 6.2 | 3 | 0.86 | 3.2 | 1.2
C[C@@H]([C@@](O)(Cn1cncn1)c1ccc(F)cc1F)S(C)(=O)=O | 0.19 | 49 |  | 54 | 0.62
CC(C)(C)NC(=O)C1CC[C@H]2[C@@H]3C=CC4=CC(C(=O)O)CC[C@]4(C)[C@H]3CC[C@]12C (stereo partly drawn) | 0.33 | 27 |  | 27 | 0.54
C=CC(=O)N1CCCC(n2nc(-c3ccc(Oc4ccccc4)cc3)c3c(N)ncnc32)C1 (stereo not drawn) |  |  | 0.03 |  | 
c1cc2c(c(N3CCNCC3)c1)OCCO2 | 8 | 8.2 |  | 10.5 | 3.6
C[N+](C)(C)NCCC(=O)[O-] | 2.8 | 6.2 |  | 4.3 | 0.7
CN(C)CC(Oc1ccccc1)Oc1ccccc1 | 13.7 | 4.4 |  | 3.4 | 2.8
Cn1cncc1[C@@](N)(c1ccc(Cl)cc1)c1ccc2c(c1)c(-c1cccc(Cl)c1)cc(=O)n2C | 5.03 | 2.52 | 0.006 | 3.07 | 0.93
CCCC(=O)Nc1ccc(OCC(O)CNC(C)C)c(C(C)=O)c1 (stereo not drawn) |  | 3.5 |  | 2.8 | 1.7
C[C@@H](N/C(=N\c1ccncc1)NC#N)C(C)(C)C | 5.68 | 2.5 | 0.6 | 3.2 | 1.1
CN(C)c1ccc(O)c2c1C[C@H]1C[C@H]3[C@H](N(C)C)C(O)=C(C(N)=O)C(=O)[C@@]3(O)C(O)=C1C2=O |  |  | 0.005 |  | 
CC[C@H]1OC(=O)C[C@@H](O)[C@H](C)[C@@H](O[C@@H]2O[C@H](C)C[C@H](N(C)C)[C@@H]2O)[C@@H](CC=O)CC(C)C(=O)C=C[C@]2(C)O[C@H]2[C@@H]1C (stereo partly drawn) | 13.3 | 3.34 |  | 3.54 | 2.83
Cc1nc(=O)c2cc(CN(C)c3ccc(C(=O)NC(CCC(=O)O)C(=O)O)s3)ccc2[nH]1 (stereo not drawn) | 0.9 | 140 | 0.05 | 123 | 6.57
CC1(C)S[C@@H]2C(NC(=O)C(C(=O)O)c3ccccc3)C(=O)N2C1C(=O)O (stereo partly drawn) | 1.9 | 1.1 |  | 1.5 | 0.17
NC(CCC(=O)NC(Cc1ccc(O)c(O)c1)C(=O)O)C(=O)O (stereo not drawn) | 4.6 | 0.5 |  | 0.74 | 0.21
C[C@@H](O)C1C(=O)N2C(C(=O)O)=C(S[C@H]3CC(C(=O)N4CC[C@H](NC(=O)CNC(=N)N)C4)N(C)C3)[C@H](C)[C@H]12 (stereo partly drawn) | 1.9 | 1.7 | 0.91 | 2 | 0.23
O=C(O)CCCSCCN1C(=O)CC[C@@H]1/C=C/[C@@H](O)Cc1ccc(F)cc1 | 15.8 | 0.38 |  | 0.51 | 0.48
CC1=CC[C@@H](C(C)(C)O)C[C@@H]1O | 2.7 | 1.9 |  | 3.1 | 0.43

Structure (SMILES) | clearance [mL/min/kg] | half-life [h] | fraction unbound | MRT [h] | Vd [L/kg]
COc1ccc2c(c1)N(C[C@H](C)CN(C)C)c1ccccc1S2 | 9.9 | 30 |  | 21 | 12
COCCN1CCN(Cc2ccc(-c3n[nH]c4c3C(=O)c3c(NC(=O)NN5CCOCC5)cccc3-4)cc2)CC1 | 11.5 | 9.9 |  | 8.5 | 5.9
CC(C)CN(C[C@@H](O)[C@H](Cc1ccccc1)NC(=O)O[C@H]1CO[C@H]2OCC[C@H]21)S(=O)(=O)c1ccc(N)cc1 | 7.81 | 15 |  |  | 
Cc1ccc(S(=O)(=O)NC(=O)NN2C[C@H]3CCC[C@@H]3C2)cc1 | 0.41 | 16.4 | 0.03 | 17.5 | 0.43
CCC1(c2cnc[nH]2)Cc2ccccc2C1 | 19.6 | 1.7 |  | 2.3 | 2.7
CN1CCN2c3ncccc3Cc3ccccc3C2C1 (stereo not drawn) | 8 |  |  | 8.8 | 4.2
Cc1ccc(-n2nccn2)c(C(=O)N2CCN(c3nc4cc(Cl)ccc4o3)CC[C@H]2C)c1 | 0.84 | 10.4 | 0.05 | 13.8 | 0.69
O=P1(NCCCl)OCCCN1CCCl (stereo not drawn) | 1.1 | 6.6 |  | 9.4 | 0.62
CC[C@@H]([C@H](C)O)n1ncn(-c2ccc(N3CCN(c4ccc(OC[C@H]5CO[C@@](Cn6cncn6)(c6ccc(F)cc6F)C5)cc4)CC3)cc2)c1=O | 4.3 | 10.6 | 0.013 | 14.5 | 3.8
CC(C)[C@@H](CC[C@@H](C)[C@H]1CC[C@H]2[C@@H]3[C@H](O)C[C@H]4C[C@@H](NCCCNCCCCN)CC[C@]4(C)[C@H]3CC[C@]12C)OS(=O)(=O)O | 1.2 | 9.5 |  | 3.2 | 0.23
COc1ccc(CNC[C@@H](O)COc2ccc3[nH]c(=O)ccc3c2)cc1OC | 8.9 | 3.3 |  | 3.2 | 1.6
CN(C)CCCN1c2ccccc2Sc2ccccc21 | 14 | 7.9 | 0.11 | 9.6 | 8.1
CN(C)[C@@H](c1cccc(O)c1)[C@H]1CCCC[C@H]1O | 2.2 | 3.85 |  |  | 
O=[N+]([O-])OCC(CO[N+](=O)[O-])O[N+](=O)[O-] | 194 |  |  |  | 
CC1=C(CO)C2=C(C)C3(CC3)[C@@](C)(O)C(=O)C2=C1 | 140 | 0.3 |  | 0.4 | 3.1
Clc1ccc2nsnc2c1NC1=NCCN1 | 11 | 2.4 |  | 3.6 | 2.4
CCc1cc2c(cc1N1CCC(N3CCOCC3)CC1)C(C)(C)c1[nH]c3cc(C#N)ccc3c1C2=O | 7.69 | 11.7 | 0.003 | 13.8 | 6.35
CCOc1ccc(Cc2cc(C3O[C@H](CO)[C@@H](O)[C@H](O)[C@H]3O)ccc2Cl)cc1 (stereo partly drawn) | 3 | 12.2 | 0.09 | 9.5 | 1.7
CCC(=O)OCC(=O)[C@@]1(OC(=O)CC)[C@@H](C)C[C@H]2[C@@H]3CC=C4CC(=O)C=C[C@]4(C)[C@@]3(Cl)[C@@H](O)C[C@@]21C | 36 | 0.5 | 0.13 | 0.1 | 0.29
